# In patent US20210395327A1, “Growth Hormone-Releasing Hormone Antagonists and Uses Thereof” (United States Government As Represented By The Department …, priority 2019, published 2021):
# Entries after “also recorded” stand apart in the source; their conditions may differ. Non-standard residues stand in square brackets, D forms with d. Residues, ends and D or L forms follow the SMILES beside them. *: point of attachment. Phe(F5) = N[C@@H](Cc1c(F)c(F)c(F)c(F)c1F)C(=O)O; hArg = N=C(N)NCCCC[C@H](N)C(=O)O; 12Ado = NCCCCCCCCCCCC(=O)O; Nle = CCCC[C@H](N)C(=O)O; Orn = NCCC[C@H](N)C(=O)O; Abu = CC[C@H](N)C(=O)O; PhAc = O=C(Cc1ccccc1)*
# How the values were obtained:
# [1] = system: bleomycin-induced lung fibrosis (lung hydroxyproline content); assay: Bleomycin mouse model, lung hydroxyproline assay; format: in vivo, C57Bl/6J mice; conditions: bleomycin IP
# Method: (§1) Abstract. Purpose. Growth hormone-releasing hormone (GHRH) is a 44-amino acid peptide that regulates growth hormone (GH) secretion. It was tested whether a GHRH receptor (GHRH-R) antagonist, MIA-602, would inhibit bleomycin-induced lung inflammation and/or fibrosis in C57Bl/6J mice. Methods. It was tested whether MIA-602 (5 μg or vehicle given subcutaneously [SC] on days 1-21) would decrease lung inflammation (at day 14) and/or fibrosis (at day 28) in mice treated with intraperitoneal (IP) bleomycin (0.8 units on days 1, 3, 7, 10, 14 and 21). […] Results. Inflammation (histopathologic scores assessed blindly) was less evident in mice treated with MIA-602 for 14 days. […] GHRH-R antagonist increased basal and maximal oxygen consumption of cultured lung fibroblasts. […] Conclusions. MIA-602 reduced lung inflammation and fibrosis due to bleomycin.
# Experimental animals. 8-week old C57Bl/6J male mice (The Jackson Laboratory, Bar Harbor, Me.) were used in these experiments. Mice weighed about 26 grams at the start. Mice were randomly allocated to the experimental groups and housed in identical filter top cages in a ventilated rack. Mice were exposed to a 12-hour light/dark cycle and had free access to standard laboratory chow and water. […]
# Hydroxyproline assay. […] Hydroxyproline was measured colorimetrically (560 nm) after hydrolysis using an assay kit (MAK008, Sigma-Aldrich, St. Louis, Mo.). […]
# [2] = system: bleomycin-induced lung inflammation and fibrosis; assay: Bleomycin mouse model, lung histopathology scores; format: in vivo, C57Bl/6J mice; conditions: bleomycin-treated mice
# Method: as §1
# Experimental animals. 8-week old C57Bl/6J male mice (The Jackson Laboratory, Bar Harbor, Me.) were used in these experiments. Mice weighed about 26 grams at the start. Mice were randomly allocated to the experimental groups and housed in identical filter top cages in a ventilated rack. Mice were exposed to a 12-hour light/dark cycle and had free access to standard laboratory chow and water.
# Bleomycin and GHRH-R antagonist treatment. Mice were treated with 0.8 units of bleomycin (Bleomycin for Injection USP, Hospira, Lake Forest, Ill.) intraperitoneally (IP) on days 1, 3, 7, 10, 14 and 21 (Collins S, Chan-Li Y, Oh M, Vigeland C, Limjunyawong N, Mitzner W, Powell J D, Horton M R (2016). JCI Insight 1(4):1-13). Mice (randomly assigned) were simultaneously treated subcutaneously (sc) with MIA-602 (5 μg/day) or its vehicle (100 μL/day). MIA-602 was dissolved in DMSO (ACS grade; Sigma-Aldrich) and diluted 1:500 in normal saline for daily sc injection on days 0-21.
# Tissue preparations. Mice were killed by CO2 inhalation before any treatment, or on days 14 or 28 for micro-CT scans of lungs and harvesting of lung tissue (Vande Vel de G, Poelmans J, De Langhe E, Hillen A, Vanoirbeek J, Himmelreich U, Lories R (2016). Dis Model Mech 9:91). The right mainstem bronchus was ligated and the right lung removed and frozen at −80° C. for hydroxyproline (HP) assays. The left lung was filled with 10% buffered formalin at […] cm H2O pressure, the bronchus ligated, and the lung fixed in formalin. Fixed lungs were embedded in wax and 5 μm sections stained with hematoxylin and eosin (H&E) or Masson's trichrome stain.
# Lung histopathology. Fibrosis was quantified in trichrome-stained sections using a modification of the Ashcroft score that describes grades of fibrosis. Inflammation in lung tissue was quantified in H&E stained sections (Hubner R, Gitter W, El Mokhtari N, Mathiak M, Both M, Bolte H, Freitag-Wolf S, Bewig B (2008). Biotechniques 44:507-517).
# Data analysis. Data are reported as arithmetic means±SEM or SD as indicated. Confidence intervals (5-95%) and ranges were used to describe histopathological scores. ANOVA followed by Dunnett's test or the Bonnferoni correction was used for multiple comparisons with a control or among groups (Kusuoka H, Hoffman J (2002). Circ Res 91:662-671). At least six mice were planned to be available at each time point in each group, so that there would be sufficient power to detect a 20% change in lung hydroxyproline given an assumed coefficient of variance of 0.2. P≤0.05 was considered significant.
# [3] = system: mouse lung fibroblasts (Mlg 2908); assay: Annexin V-propidium iodide assay of lung fibroblasts; format: cell-based; conditions: 24 hours, annexin-V/PI
# Method: Lung fibroblasts. Newborn mouse lung fibroblasts (Mlg 2908) were obtained from the American Type Culture Collection, Manassas, Va. and cultured in Eagle's minimal essential medium. Cells were grown in 6-well plates before incubation with 1 or 5 μM MIA-602 or vehicle, RNA isolation, and oxygen consumption measurements.
# Annexin V-propidium iodide assay. Apoptosis and necrosis were assessed with annexin-V/propidium iodide staining (Annexin V: FITC Assay Kit, Bio Rad, Hercules, Calif. 94547) of lung fibroblasts incubated in 0, 1 or 5 μM MIA-602 for 24 hours (Rieger A, Nelson K, Konowalchuk J, Barreda D. (2011). J Visualized Experiments 50:e2597). Culture medium and trypsinized cells were collected and centrifuged at 400×g for 5 minutes. The pellet was resuspended in 100 μL annexin-V/propidium iodide. The suspension was incubated at 37° C. for 20 minutes, then washed with PBS and resuspended in 500 μL PBS and fluorescence quantified by Beckman Coulter Life Sciences CytoFLEX benchtop flow cytometer (Beckman Coulter, Inc., Brea, Calif.).
structure (smiles),measurement,setting,value
"CCCC[C@H](NC(=O)[C@@H](NC(=O)[C@H](CC(=O)O)NC(=O)[C@H](CCC(N)=O)NC(=O)[C@H](CC(C)C)NC(=O)[C@H](CC(C)C)NC(=O)[C@H](CCCN)NC(=O)[C@H](Cc1c[nH]cn1)NC(=O)[C@H](C)NC(=O)[C@H](CO)NC(=O)[C@H](CC(C)C)NC(=O)[C@H](CCC(N)=O)NC(=O)[C@H](CC)NC(=O)[C@H](CC(C)C)NC(=O)[C@@H](NC(=O)[C@H](CCCN)NC(=O)[C@H](Cc1c[nH]cn1)NC(=O)[C@H](Cc1ccc(OC)cc1)NC(=O)[C@H](CCCCNC(=N)N)NC(=O)[C@H](C)NC(=O)[C@@H](NC(=O)[C@H](Cc1c(F)c(F)c(F)c(F)c1F)NC(=O)[C@@H](NC(=O)[C@H](C)NC(=O)[C@H](CC(=O)O)NC(=O)[C@@H](CCCNC(=N)N)NC(=O)[C@H](Cc1ccc(O)cc1)NC(=O)CCCCCCCCCCCNC(=O)Cc1ccccc1)[C@@H](C)CC)[C@@H](C)O)C(C)C)[C@@H](C)CC)C(=O)N[C@H](CCCNC(=N)N)C(=O)N[C@@H](CCCCNC(=N)N)C(N)=O [MIA-602, PhAC-Ada, Tyr D-Arg, Asp, Ala, Ile, 5FPhe, Thr, Ala, Har, Tyr(Me), His, Orn, Val, Leu, Abu, Gin, Leu, Ser, Ala, His, Om, Leu, Leu, Gin, Asp, Ile; Nle, D-Arg, Har NH2, reference compound] ({PhAc-12Ado}-Y[dR]DAI[Phe(F5)]TA[hArg]Y(Me)H[Orn]VL[Abu]QLSAH[Orn]LLQDI[Nle][dR][hArg]-NH2)","lung hydroxyproline (HP) content, change (in words)","[1]; 14 days, MIA-602 5 μg/day sc",did not increase significantly
same,"lung hydroxyproline (HP) content, change (in words)","[1]; 28 days, MIA-602 5 μg/day sc days 1-21, right lung","increased significantly in bleomycin-treated mice that received vehicle, but not in bleomycin-treated mice that received MIA-602; also recorded: No significant increase in HP content"
same,"lung inflammation histopathologic score, 5%-95% CI","[2]; after 14 days, n=4",0.4-1.4
same,"lung inflammation histopathologic score, range","[2]; after 14 days, n=4",0.6-1.2
same,"lung fibrosis histopathologic score (modified Ashcroft), 5%-95% CI","[2]; after 28 days, n=5",1.1-2.9
same,"lung fibrosis histopathologic score (modified Ashcroft), range","[2]; after 28 days, n=5",1.0-3.0
same,"lung fibrosis, histopathology (in words)",[2]; MIA-602 vs vehicle,decreased; also recorded: Less fibrosis appeared to be present
same,"lung inflammation, histopathology (in words)",[2]; MIA-602 vs vehicle,decreased; also recorded: Less inflammation appeared to be present
same,cytolytic cell death,[3]; 1 μM,9.3±1.1%
same,cytolytic cell death,[3]; 5 μM,34.9±2.5%
